Molecules are shown by their SMILES. Where “and” joins values, the source holds several entries; their conditions need not be identical. Equal values may be shown once. Read-outs that look alike come from different tables or passages of the source.

Data on two compounds can be found in patent US20050287232A1, “Skin immune function controlling agents” (priority 1999, published 2005).

Experiment [1] deals with contact hypersensitivity reaction. As to the kind of experiment: Contact hypersensitivity (CH) reaction induced and provoked with TNCB; perfume inhalation or topical application. It counts as in vivo, mice. As to the method:
Female C57 BL/6 mice (aged 7-9 weeks) were used. Each group of five animals were placed in a cage (225×335×140 mm) and kept in a chamber maintained at a temperature of 21-25° C. and a relative humidity of 40-70%. The inhalation of a perfume into the animals was carried out by placing a Petri dish having a diameter of 10 cm in the cage, putting therein a filter paper impregnated with the perfume, and covering the dish with wire netting. (A filter paper impregnated with no perfume was used for a control group.) This animal experiment followed the National Research Council Guidelines. […] After 5 days (on experimental day 6), a contact hypersensitivity reaction was provoked by applying 5 μl of a 1% acetone solution of the aforesaid antigen to both sides of the right ear of each animal. The contact hypersensitivity (hereinafter referred to as CH) reaction was evaluated by measuring the thickness of the swollen left and right ears on day 7 with a micrometer and calculating the difference between the measured values. In order to examine the effect of perfume inhalation at the time of sensitization, a Petri dish containing a filter paper impregnated with the aforesaid perfume was placed in the cage over a period of time extending from day 0 to day 2. In order to examine the effect of perfume inhalation at the time of immunity provocation, the aforesaid Petri dish was placed in the cage over a period of time extending from day 5 to day 7. In order to examine the effect of the direct application of a perfume to the skin, 50 μl of 0.1% […] or diluent (50% corn oil in acetone) was applied to a region to be sensitized, and the aforesaid antigen was applied thereto after 6 hours. The long-term effect was tested by applying 50 μl of 1% perfume or diluent every day over a period of time extending from day 0 to day 2.

Experiment [2] deals with adenylate cyclase. To be noted: olfactory cells of frogs; Sklar et al. 1986; cited from earlier work.
Experiment [3] relates to adenylate cyclase. To be noted: olfactory cells of rats; Boekhoff et al. 1990; cited from earlier work.
Experiment [4] has as its system Epidermal Langerhans' cells. In words: Staining of epidermal Langerhans' cells (I-A antigen) after perfume exposure. Format: in vivo, mouse. On the procedure: Female C57 BL/6 mice (aged 7-9 weeks) were used. Each group of five animals were placed in a cage (225×335×140 mm) and kept in a chamber maintained at a temperature of 21-25° C. and a relative humidity of 40-70%. The inhalation of a perfume into the animals was carried out by placing a Petri dish having a diameter of 10 cm in the cage, putting therein a filter paper impregnated with the perfume, and covering the dish with wire netting. (A filter paper impregnated with no perfume was used for a control group.) This animal experiment followed the National Research Council Guidelines. Epidermal Langerhans' cells were stained according to the well-known method. In brief, an ear of a mouse was incubated in a 3.8% aqueous solution of ammonium thioisocyanate at 37° C. for 20 minutes to separate the epidermis from the corium. The epidermal sheet was fixed with acetone and incubated in the culture supernatant of mouse hybridoma M5/114.15.2 (American Tissue Type Collection, Rockville, Md., USA) so as to cause the secretion of anti-I-A IgG. Then, the anti-I-A IgG was combined with fluorescein isothiocyanate (FITC) (Sigma, USA)-labeled anti-mouse IgG antibody. Cells positive for the I-A antigen were observed under a confocal laser scanning microscope (MRC600; Bio Rad, USA) and analyzed. Samples were collected from each group of five mice. Three regions of each sample were analyzed by a blind test.

Experiment [5] relates to contact hypersensitivity reaction. In words: CH reaction under restraint stress with perfume inhalation. It counts as in vivo, mice. To be noted: for Swelling: DMMB inhalation, individual animals, right ear minus left ear thickness; for Average (swelling): DMMB, average of 5 values of Table III (1), given there in × 0.01 mm. On the procedure:
Female C57 BL/6 mice (aged 7-9 weeks) (purchased from Charles River Japan) were used. Each group of five animals were placed in a cage (225×335×140 mm) and kept in a chamber maintained at a temperature of 21-25° C. and a relative humidity of 40-70%. The inhalation of a perfume into the animals was carried out by placing a Petri dish having a diameter of 10 cm in the cage, putting therein a filter paper impregnated with the perfume, and covering the dish with wire netting. (A filter paper impregnated with no perfume was used for a control group.) These animals were laid in a prone position and wrapped in a pliable fine-meshed wire net for 6 hours. This animal experiment gained the approval of the animal experimentation committee of our company following the National Research Council Guidelines.
Mice were sensitized by applying 2,4,6-trinitrochlorobenzene (TNCB) (10 μl of a 3% acetone solution) to the inner and outer surfaces of the left ear of each mouse. After 5 days, a CH reaction was provoked by applying TNCB (5 μl of a 1% acetone solution) to the inner and outer surfaces of the right ear of each mouse. After 24 hours, the swelling was evaluated by measuring the thicknesses of both ears with a micrometer (manufactured by Mitsutoyo) and subtracting the thickness of the left ear from that of the right ear. The exposure of the animals to a perfume was continued over a period of time extending from 24 hours before provocation to the measurement of the swelling. The restraint stress was imposed 24 hours before provocation and repeated immediately after provocation. This experiment was carried out by using the animals in groups of five and using 1,3-dimethoxy-5-methylbenzene (DMMB; purchased from Takasago International Inc.) as the perfume.
The values given in Table III, (1) are values obtained by subtracting the measured thickness of the left ear of each test animal from that of the right ear thereof.

Experiment [6] deals with Langerhans' cells in the epidermis. As to the kind of experiment: Staining of Langerhans' cells after stress imposition with perfume inhalation. The conditions noted are these: DMMB at the time of stress imposition, FIG. 5. It counts as in vivo, mice. On the procedure:
Epidermal Langerhans' cells were stained according to the well-known method. In brief, an ear of a mouse was incubated in a 3.8% aqueous solution of ammonium thioisocyanate at 37° C. for 20 minutes to separate the epidermis from the corium. The epidermal sheet was fixed with acetone and incubated in the culture supernatant of mouse hybridoma M5/114.15.2 (American Tissue Type Collection, Rockville, Md., USA) so as to cause the secretion of anti-I-A IgG. Then, the anti-I-A IgG was combined with fluorescein isothiocyanate (FITC) (Sigma, USA)-labeled anti-mouse IgG antibody. Cells positive for the I-A antigen were observed under a confocal laser scanning microscope (MRC600; Bio Rad, USA) and analyzed. Samples were collected from each group of five mice. Three regions of each sample were analyzed by a blind test.
Female C57 BL/6 mice (aged 7-9 weeks) (purchased from Charles River Japan) were used. Each group of five animals were placed in a cage (225×335×140 mm) and kept in a chamber maintained at a temperature of 21-25° C. and a relative humidity of 40-70%. The inhalation of a perfume into the animals was carried out by placing a Petri dish having a diameter of 10 cm in the cage, putting therein a filter paper impregnated with the perfume, and covering the dish with wire netting. […]

[7] abbreviates: Table I, after exposure to citralva, SD in parentheses.
Setting [8] is: Table II, animals kept in the presence of citralva or lyral/lilial, SD in parentheses.

Regarding `CC(C)=CCCC(C)=CC#N` [citralva, 3,7-dimethyl-2,6-octadienenitrile], in experiment [1] (direct application to the skin, 50 μl of 0.1% or 1% perfume, FIG. 3), the “influence of topical application on the CH reaction” value is given as “neither citralva nor lyral/lilial exerts an influence on the CH reaction”. The “suppression of the induction of the CH reaction” value in experiment [1] (inhalation, exposure for 2 days at the time of induction (day 0 to day 2), FIG. 1 B) was “about 20%”. For the same compound, in experiment [1] (inhalation, exposure for 2 days at the time of provocation (day 5 to day 7), compared with controls, FIG. 1 A), the “suppression of the provocation of the CH reaction” value is reported as “about 50%”. In addition, in experiment [1] (perfume inhalation, FIG. 2), the “effect on CH reaction, citralva compared with lyral/lilial” value is listed as “significantly more powerful than that of lyral/lilial” and the “effect on the provocation of a CH reaction” value is on record as “suppress the CH reaction”. In addition, the adenylate cyclase activation entry in the experiment on adenylate cyclase [2] is on record as “activates adenylate cyclase”. In addition, in the experiment on adenylate cyclase [3], the adenylate cyclase activation result was “activates adenylate cyclase”. Further, in experiment [4] (setting [7]), the Area per cell is given as 172.0 (78.3) μm^2, the “Intensity of I-A” value is listed as 89.9 (2.9), the “Number of LC” value is 119.8 (15.0) per mm^2 and the Number of dendrites is given as 4.40 (0.92). Further, the “effect on Langerhans' cells, comparison of perfumes” value in experiment [4] (Table II) is “more powerful effect than lyral/lilial”. Moreover, in experiment [4] (setting [8]), the “Intensity of I-A” value is listed as 84.9 (3.1) and the Number of dendrites is 2.56 (0.12). Besides, in experiment [4] (after exposure to citralva, versus control (Table I)), the “change in number of LC” value was “significantly decreased”. Also, the “change in area of each I-A-positive cell” value in experiment [4] (exposure to citralva, versus control) is on record as “significantly reduced”.

As to `COc1cc(C)cc(OC)c1` [DMMB, 1,3-dimethoxy-5-methylbenzene], the Swelling in experiment [5] (Restrained) was 17 × 0.01 mm (2×) and 18 × 0.01 mm and 15 × 0.01 mm and 14 × 0.01 mm; in experiment [5] (Unrestrained), 17 × 0.01 mm (2×) and 16 × 0.01 mm (2×) and 13 × 0.01 mm. Besides, the “Average (swelling)” value in experiment [5] (Restrained) is 16.2; in experiment [5] (Unrestrained), 15.38. In addition, the “suppression of the skin immune reaction by stress” value in experiment [5] (animal group having undergone DMMB inhalation, Table III, FIG. 4) is given as “not observed”. For the same compound, the “number of Langerhans' cells” value is given as “of the same order” in experiment [6] (compared with group without stress imposition) and “significantly increased” in experiment [6] (compared with stress imposition alone).
